Experimental data from ChEMBL document CHEMBL1159214, “The antiallergic activities of synthetic acrophylline and acrophyllidine” (J Nat Prod, 1995).
Active and inactive are the calls of the source. No cut-off for these calls is given here.

Experiments:
Mast cell [1] = assay: Inhibition of compound 48/80-challenged Sprague-Dawley rat peritoneal mast cell degranulation assessed as beta-glucuronidase release at 30 uM administered 3 mins prior to compound 48/80 challenge measured after 15 mins; type: functional, cell-based
Mast cell [2] = assay: Inhibition of compound 48/80-challenged Sprague-Dawley rat peritoneal mast cell degranulation assessed as beta-glucuronidase release at 10 uM administered 3 mins prior to compound 48/80 challenge measured after 15 mins; type: functional, cell-based
Mus musculus = assay: Suppression of anti-dinitrophenyl-coupled albumin-induced passive cutaneous anaphylaxis reaction-associated ear edema in mouse assessed as reduction of volume of plasma exudation at 30 umol/kg, ip administered 30 mins prior to DNP-albumin challenge measured after 45 mins; type: functional, organism-based
Mast cell [3] = assay: Inhibition of compound 48/80-challenged Sprague-Dawley rat peritoneal mast cell degranulation assessed as beta-glucuronidase release up to 100 uM administered 3 mins prior to compound 48/80 challenge measured after 15 mins; type: functional, cell-based

SMILES	Activity (Mast cell [1])	Activity (Mast cell [2])	Activity (Mus musculus)	Activity (Mast cell [3])
COc1ccc2c(=O)c3ccoc3n(CC=C(C)C)c2c1	Active	Active	Active	–
COc1ccc2c(=O)c3ccoc3n(CCC(C)(C)O)c2c1	–	–	Active	inactive
